This experiment deals with T1, QsGH97a.
T1 construct: pSMT3 His-SUMO fusion in E. coli BL21(DE3), tag cut by Ulp1; probable dimer; forward primer encodes MIRHIALFI; catalytic Glu378, Glu459, Glu483
Put plainly: p-nitrophenol release at […] nm, Michaelis-Menten fit. It counts as biochemical, Qipengyuania seohaensis. The note with it: 20 mM Tris-HCl pH 8.0, 50 °C, no added metal ion.

One may read the Km as the substrate concentration at which the rate is half of its maximum.

On to `O=[N+]([O-])c1ccc(O[C@H]2O[C@H](CO)[C@@H](O)[C@H](O)[C@H]2O)cc1` [pNPαGlu, p-Nitrophenyl-α-D-glucopyranoside], for which the Km amounted to 200 ± 20 µM.

Source of the values: article PMC10086023, “The effect of barium and strontium on activity of glucoamylase QsGH97a from Qipengyuania seohaensis SW-135” (Scientific Reports, 2023).
